# Tested on: participants with Raynaud's Phenomenon secondary mostly to systemic sclerosis (SSc-RP)
# Test: Frequency of weekly symptomatic RP attacks (patient diary), Phase 2a study Part A
# Assay type: in vivo, human
# Description: A randomized, placebo-controlled phase 2a study was performed and is in progress to assess the safety and efficacy of cilnidipine (10 mg and 20 mg) alone and in combination with 5 mg tadalafil, in participants with diagnosis of scleroderma and/or secondary Raynaud's disease.
# The relevant metrics measured by this tool daily are: • Study medication • SSc-RP symptoms (Reporting an attack including duration of attack) • Severity of the attack considering all symptoms of the attack e.g., tingling, numbness, pain, color changes (VAS 0-10 cm scale) • Participant's location at the time of the attack (inside home/outside home) • Selecting symptoms experienced during the attack (tingling, numbness, pain, color changes, other) • Pain rating during the attack (11-point Likert scale) • The RCS based on how much difficulty participants had with Raynaud's today, how many attacks the participant had, and how long they lasted. Participants will also be asked to consider how much pain, numbness, or other symptoms the Raynaud's caused in fingers (including painful sores), and how much the Raynaud's alone affected the use of hands today (VAS 0-10 cm scale).
# Percent change from baseline evaluation for frequency of weekly RP attacks were or will be used as the primary efficacy variable. The sponsor-developed participant-informed diary will be used to record data. Frequency of weekly RP attacks is defined as the total number of RP attacks divided by the number of days with available diary data within the last 7 days of each dosing period then multiplied by 7. Total number of RP attacks during the last 7 days of screening period divided by the number of days with available data then multiplied by 7 will be used as baseline for the analysis of all periods. The variable will be calculated as follows:
# Percentage change={(weekly RP attacks for the last 7 days of each dosing period−Baseline weekly RP attacks)/Baseline weekly RP attacks}*100%.
# Absolute change=weekly RP attacks for the last 7 days of each dosing period−Baseline weekly RP attacks
# Percent change from baseline evaluation for frequency of weekly RP attacks was and will be the primary efficacy endpoint. Frequency of weekly RP attacks is defined as the total number of RP attacks divided by the number of days with available diary data within the last 7 days of each dosing period then multiplied by 7. Total number of RP attacks during the last 7 days of screening period divided by the number of days with available data then multiplied by 7 will be used as baseline for the analysis of all periods.
# The following data was actually obtained in accordance with the protocol and plan delineated in Examples 1 and 2. The accompanying data involved 11 patients out of the planned 76 patient study. The study was done in patients with scleroderma (systemic sclerosis) who had relatively frequent Raynaud symptoms as they needed to average at least one attack per day during a screening period of up to two weeks. In this first phase of this double-blind placebo-controlled, prospective randomized study, patients were treated in parallel and after meeting study criteria were randomized to receive either placebo, cilnidipine 10 mg daily, cilnidipine 20 mg daily, tadalafil 5 mg daily, cilnidipine 10 mg plus 5 mg of tadalafil, or cilnidipine 20 mg plus 5 mg of tadalafil.
# [1] = Tadalafil 5 mg (N = 2), ITT Part A
# [2] = Tadalafil 5 mg, n 1, Excluding Outliers, ITT Part A
# [3] = Tadalafil 5 mg, n 2, by Baseline RCS, 2nd block (RCS >5.0), ITT Part A
# [4] = excluding outliers, by baseline RCS, second subgroup, cilnidipine 10 mg, tadalafil 5 mg daily
smiles,measurement,setting,value
"CN1CC(=O)N2[C@H](c3ccc4c(c3)OCO4)c3[nH]c4ccccc4c3C[C@@H]2C1=O [Tadalafil, tadalafil]","Weekly Symptomatic RP Attacks Change from Baseline, Mean",[1],4.50
same,"Weekly Symptomatic RP Attacks Change from Baseline, Median",[1],4.50
same,"Weekly Symptomatic RP Attacks Percent Change from Baseline, Mean",[1],62.50%
same,"Weekly Symptomatic RP Attacks Percent Change from Baseline, Median",[1],62.50%
same,"Weekly Symptomatic RP Attacks, Mean",[1],12.50
same,"Weekly Symptomatic RP Attacks, Median",[1],12.50
same,"Weekly Symptomatic RP Attacks Change from Baseline, Mean (SD)",[2],6.00
same,"Weekly Symptomatic RP Attacks Change from Baseline, Median",[2],6.00
same,"Weekly Symptomatic RP Attacks Percent Change from Baseline, Mean (SD)",[2],50.00%
same,"Weekly Symptomatic RP Attacks Percent Change from Baseline, Median",[2],50.00%
same,"Weekly Symptomatic RP Attacks, Mean (SD)",[2],18.00
same,"Weekly Symptomatic RP Attacks, Median",[2],18.00
same,"Weekly Symptomatic RP Attacks Change from Baseline, Mean (SD)",[3],4.50 (2.121)
same,"Weekly Symptomatic RP Attacks Change from Baseline, Median",[3],4.50
same,"Weekly Symptomatic RP Attacks Percent Change from Baseline, Mean (SD)",[3],62.50 (17.678) %
same,"Weekly Symptomatic RP Attacks Percent Change from Baseline, Median",[3],62.50%
same,"Weekly Symptomatic RP Attacks, Mean (SD)",[3],12.50 (7.778)
same,"Weekly Symptomatic RP Attacks, Median",[3],12.50
same,"Weekly Symptomatic RP Attacks Change from Baseline, Max",[4],"6.0, 6.0"
same,"Weekly Symptomatic RP Attacks Change from Baseline, Mean (SD)",[4],6.00
same,"Weekly Symptomatic RP Attacks Change from Baseline, Median",[4],6.00
same,"Weekly Symptomatic RP Attacks Change from Baseline, Min",[4],"6.0, 6.0"
same,"Weekly Symptomatic RP Attacks Change from Baseline, Q1",[4],"6.00, 6.00"
same,"Weekly Symptomatic RP Attacks Change from Baseline, Q3",[4],"6.00, 6.00"
same,"Weekly Symptomatic RP Attacks Percent Change from Baseline, Max",[4],"50.0, 50.0%"
same,"Weekly Symptomatic RP Attacks Percent Change from Baseline, Mean (SD)",[4],50.00%
same,"Weekly Symptomatic RP Attacks Percent Change from Baseline, Median",[4],50.00%
same,"Weekly Symptomatic RP Attacks Percent Change from Baseline, Min",[4],"50.0, 50.0%"
same,"Weekly Symptomatic RP Attacks Percent Change from Baseline, Q1",[4],"50.00, 50.00%"
same,"Weekly Symptomatic RP Attacks Percent Change from Baseline, Q3",[4],"50.00, 50.00%"
same,"Weekly Symptomatic RP Attacks, Max",[4],"18.0, 18.0"
same,"Weekly Symptomatic RP Attacks, Mean (SD)",[4],18.00
same,"Weekly Symptomatic RP Attacks, Median",[4],18.00
same,"Weekly Symptomatic RP Attacks, Min",[4],"18.0, 18.0"
same,"Weekly Symptomatic RP Attacks, Q1",[4],"18.00, 18.00"
same,"Weekly Symptomatic RP Attacks, Q3",[4],"18.00, 18.00"
